Assays:
[1] = species on record: Rattus norvegicus; test: Ratio in isolated cardiac myocytes under anoxic/oxic conditions; format: functional, cell-based
[2] = species on record: Rattus norvegicus; test: In vitro evaluation of efficacy of BAPN in isolated cardiac myocytes under anoxia condition; format: functional, cell-based
[3] = species on record: Rattus norvegicus; test: In vitro evaluation of efficacy of BAPN in isolated cardiac myocytes under normoxia condition; format: functional, cell-based
[4] = species on record: Bos taurus; test: Compound was evaluated for permeability index in cultured bovine endothelial cell monolayer system; format: ADME; conditions: cattle
[5] = species on record: Rattus norvegicus; test: In vitro evaluation of efficacy of BAPN in isolated cardiac myocytes under anoxic/oxic conditions; format: functional, cell-based

99m Tc-BAPN [listing 1 of 2 here]
Ratio [1]: 1.08
Retention [2]: 41.4%
Retention [3]: 38.2%

99m Tc-BMS 181321 [listing 1 of 2 here]
Permeability index [4]: 63.2 Pi

99m Tc-BMS 181321 [listing 2 of 2 here]
Ratio [1]: 3.03%
Ratio [5]: 3.03
Retention [3]: 17.6%

99m Tc-BAPN [listing 2 of 2 here]
Permeability index [4]: -0.25 Pi

— ChEMBL document CHEMBL1127421, “The synthesis and in vitro evaluation of a 99mtechnetium-nitroimidazole complex based on a bis(amine-phenol) ligand: comparison to BMS-181321” (J Med Chem, 1994)
